Here are results for four molecules from patent US12686676B2, “Compound, endothelin-A receptor antagonist, and pharmaceutical composition” (Alchemedicine, Inc., priority 2021, dated 2026).

The target in data set [1] is T1, human endothelin A receptor (Homo sapiens, UniProt P25101).
T1 construct: expressed in transfected cells; host or cells: CHO-K1-mt aequorin cells
T1 sequence (P25101 21-427): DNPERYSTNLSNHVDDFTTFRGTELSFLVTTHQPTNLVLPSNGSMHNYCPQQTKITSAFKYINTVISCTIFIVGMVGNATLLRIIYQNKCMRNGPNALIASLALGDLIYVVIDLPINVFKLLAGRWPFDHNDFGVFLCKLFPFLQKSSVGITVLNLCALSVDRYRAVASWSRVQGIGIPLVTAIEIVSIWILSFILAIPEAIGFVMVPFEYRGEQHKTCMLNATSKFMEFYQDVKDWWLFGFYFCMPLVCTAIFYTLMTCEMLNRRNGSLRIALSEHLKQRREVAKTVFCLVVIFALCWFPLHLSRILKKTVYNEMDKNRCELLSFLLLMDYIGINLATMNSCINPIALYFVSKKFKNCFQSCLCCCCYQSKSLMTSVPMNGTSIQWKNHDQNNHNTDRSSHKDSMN
The experiment in a line: Endothelin A receptor inhibitory effect (aequorin light emission, endothelin at EC80). It counts as cell-based. The settings on record: for pIC50: CHO-K1-mt aequorin cells expressing human endothelin A receptor, endothelin at EC80, read-out: ETA receptor inhibitory effect; for ETA selectivity (ETB/ETA): ETB IC50 value/ETA IC50 value. Here is the method:
The inhibitory effect on an endothelin A receptor was studied by the following method.
CHO-K1-mt aequorin cells forced to express a human endothelin A receptor (Accession Number NP_001948.1) were cultured in an antibiotic-free medium for 18 hours, then treated with PBS-EDTA (5 mM EDTA), centrifuged (2 min, 405×g, room temperature), and then suspended in an assay buffer (DMEM/HAM's F12 with HEPES+0.1% BSA protease free).
(§1) 1×10^6 cells/mL of the cells were incubated at room temperature for 4 hours in the presence of coelenterazine h (Molecular Probes, Inc.) (final concentration: 5 µM). Agonistic reaction based on endothelin was confirmed to determine an endothelin concentration corresponding to EC80.
Subsequently, 50 µL (10000 cells/well) of the cell suspension treated with coelenterazine h and 50 µL of an assay buffer containing a test substance (final concentration: 0.5% in DMSO) were added to each well of a 96-well plate. 15 minutes later, endothelin was added such that its final concentration was an EC80 concentration. Receptor activity was measured as the quantity of light emission in FDSS6000 (Hamamatsu Photonics K.K.). IC50 values were calculated using XLfit (ID Business Solutions Ltd. (IDBS)).

Data set [2] has as its target T2, human endothelin B receptor (Homo sapiens, UniProt P24530).
T2 construct: expressed in transfected cells; host or cells: CHO-K1-mt aequorin cells
T2 sequence (P24530 27-442): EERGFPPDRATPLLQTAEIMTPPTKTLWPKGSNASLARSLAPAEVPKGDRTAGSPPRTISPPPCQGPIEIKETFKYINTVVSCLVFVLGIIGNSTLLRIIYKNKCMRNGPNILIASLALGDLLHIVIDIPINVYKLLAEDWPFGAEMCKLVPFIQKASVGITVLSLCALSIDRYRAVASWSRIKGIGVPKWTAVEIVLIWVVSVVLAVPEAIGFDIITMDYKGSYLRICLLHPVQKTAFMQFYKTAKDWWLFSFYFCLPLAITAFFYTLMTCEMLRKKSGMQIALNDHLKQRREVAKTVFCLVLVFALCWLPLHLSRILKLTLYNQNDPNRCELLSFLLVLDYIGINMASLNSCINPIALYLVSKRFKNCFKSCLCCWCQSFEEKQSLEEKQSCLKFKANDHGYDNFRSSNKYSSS
The experiment in a line: Endothelin B receptor inhibitory effect (aequorin light emission, endothelin at EC80). It counts as cell-based. To be noted: CHO-K1-mt aequorin cells expressing human endothelin B receptor; endothelin at EC80; read-out: ETB receptor inhibitory effect. How it is done:
The inhibitory effect on an endothelin B receptor was studied by the following method.
CHO-K1-mt aequorin cells forced to express a human endothelin B receptor (Accession Number NP_000106.1) were cultured in an antibiotic-free medium for 18 hours, then treated with PBS-EDTA (5 mM EDTA), centrifuged (2 min, 405×g, room temperature), and then suspended in an assay buffer (DMEM/HAM's F12 with HEPES+0.1% BSA protease free).
as §1
Subsequently, 50 µL (10000 cells/well) of the cell suspension treated with coelenterazine h and 50 µL of an assay buffer containing a test substance (final concentration: 0.5% in DMSO) were added to each well of a 96-well plate. 15 minutes later, endothelin was added such that its final concentration was an EC80 concentration. Receptor activity was measured as the quantity of light emission in FDSS6000 (Hamamatsu Photonics K.K.).

The next data set deals with T3, CYP2C9 (Homo sapiens, UniProt P11712).
T3 construct: A frozen liver microsome fraction was thawed on ice; from tissue; host or cells: liver microsome fraction
The experiment in a line: CYP2C9 inhibitory effect (liver microsome fraction, diclofenac substrate). It counts as in vitro ADME. To be noted: liver microsome fraction 0.5 mg/mL, diclofenac 2.5 μM. Here is the method:
The inhibitory effect on CYP2C9 was evaluated by the following method. • (1) A frozen liver microsome fraction was thawed on ice and diluted with a potassium phosphate buffer (PPB) to a final concentration of 0.5 mg/mL. • (2) A substrate for evaluation (diclofenac: D6899 from Sigma-Aldrich Co. LLC) was added thereto such that its final concentration was 2.5 μM. • (3) The mixture was slowly mixed and incubated at 37±1° C. for 5 minutes to prepare a reaction solution. • (4) 801 μL of the reaction solution was dispensed to each tube, and an evaluation compound serially diluted with 0.9 μL of DMSO was added thereto such that its final concentration was 9.1 to 20000 nM (⅓ dilutions with 8 concentrations). In this context, 0.9 μL of DMSO was added to a negative control group, and 0.9 μL of sulfaphenazole (S0758 from Sigma-Aldrich Co. LLC) adjusted to a final concentration of 1 μM with DMSO was added to a positive control group. • (5) After mixing, a 270 μL aliquot was transferred to each of two fresh tubes and incubated in a shaking water bath at 37±1° C. for 5 minutes. • (6) Reaction was started by the addition of 30 μL of 10 mM NADPH, and the tubes were incubated at 37° C.±1° C. for 10 minutes. • (7) The tubes were taken out of the shaking water bath, and the reaction was terminated by the addition of 300 μL of a reaction stop solution. After mixing, the tubes were centrifuged at 1021×g at 4° C. for 20 minutes. • (8) The amount of the substrate for evaluation metabolized was determined by LC-MS/MS to calculate the rate of inhibition at each concentration of the evaluation compound. • (9) IC50 values were calculated using GraphPad Prism5. A sample having an IC50 value of 1 μM or lower was given “++”; a sample having an IC50 value in the range of higher than 1 μM and 10 μM or lower was given “+”; and a sample having an IC50 value of higher than 10 μM was given “−”.
(Liver microsomes are a subcellular fraction often used to study metabolism.)

The target in the next data set is T4, ETA receptor (Homo sapiens, UniProt P25101).
T4 sequence (P25101 21-427): T1 sequence (P25101 21-427)
The settings on record: cited from earlier work.

The conditions of data set [3]: pulmonary hypertension associated with connective tissue disease; cited from earlier work.
The conditions of data set [4]: in vivo; cited from earlier work.
The conditions of data set [5]: in vivo; cited from earlier work. This is another data set of the same source.

Each structure is given as a SMILES string. pIC50: −log10 of the molar value.

T3 sequence (P11712 whole entry): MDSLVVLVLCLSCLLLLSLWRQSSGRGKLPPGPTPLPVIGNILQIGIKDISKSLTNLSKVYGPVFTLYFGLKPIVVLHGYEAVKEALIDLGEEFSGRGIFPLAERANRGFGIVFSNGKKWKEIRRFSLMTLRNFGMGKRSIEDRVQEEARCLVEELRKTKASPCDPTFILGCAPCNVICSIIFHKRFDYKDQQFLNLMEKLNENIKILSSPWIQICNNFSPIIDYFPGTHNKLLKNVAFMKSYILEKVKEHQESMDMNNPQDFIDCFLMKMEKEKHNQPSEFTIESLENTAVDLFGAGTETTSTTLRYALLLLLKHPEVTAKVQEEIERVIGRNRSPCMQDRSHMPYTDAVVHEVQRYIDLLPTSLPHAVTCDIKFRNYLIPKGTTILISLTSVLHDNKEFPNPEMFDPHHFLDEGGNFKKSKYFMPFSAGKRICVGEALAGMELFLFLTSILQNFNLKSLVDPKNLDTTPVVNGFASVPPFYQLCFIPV

Take `Cc1cc2c(cc1CC(=O)c1sccc1S(=O)(=O)Nc1onc(C)c1Cl)OCO2` [Comparative Example 1, sitaxentan, reference compound]: the figures for the pIC50 (in data set [1]; in data set [2]; at CYP2C9) were 8.00 to 9.00, < 5.30 and ≥ 6.00, respectively. The “ETA selectivity (ETB/ETA)” value in data set [1] is “++ (ETB IC50 value/ETA IC50 value of higher than 5000)”. Besides, on ETA receptor, the “Selective inhibition of ETA receptor in contrast to ETB receptor” value is on record as “selectively inhibit the ETA receptor”. In addition, in data set [3], the “Drug efficacy in clinical trials” value is recorded as “significant drug efficacy”. Further, the “Effect on endothelin concentrations in blood” value in data set [4] is reported as “not increase endothelin concentrations in blood”. Also, in data set [5], the Peripheral edema result is reported as “not cause peripheral edema”.

Consider `Cc1cc2c(cc1CC(=O)c1sccc1S(=O)(=O)Nc1onc(C)c1Cl)COC2` [Comparative Example 2, reference compound], for which the results for the pIC50 (in data set [1]; in data set [2]; on CYP2C9) were ≥ 9.00, < 5.30 and ≥ 6.00, respectively. Further, in data set [1], the “ETA selectivity (ETB/ETA)” value was “++ (ETB IC50 value/ETA IC50 value of higher than 5000)”.

As for `Cc1cc2c(cc1C#Cc1ncccc1S(=O)(=O)Nc1noc(C)c1C)C(C)OC2` (centres unmarked) [Example 2, 2-((3,6-Dimethyl-1,3-dihydroisobenzofuran-5-yl)ethynyl)-N-(4,5-dimethylisoxazol-3-yl)pyridine-3-sulfonamide], in data set [1], the pIC50 was ≥ 9.00 and the “ETA selectivity (ETB/ETA)” value is listed as “++ (ETB IC50 value/ETA IC50 value of higher than 5000)”. For the same molecule, the pIC50 in data set [2] is < 5.30.

`Cc1cc2c(cc1C#Cc1ncccc1S(=O)(=O)Nc1noc(C)c1C)COC2C` (centres unmarked) [Example 11, 2-((1,6-Dimethyl-1,3-dihydroisobenzofuran-5-yl)ethynyl)-N-(4,5-dimethylisoxazol-3-yl)pyridine-3-sulfonamide]: the pIC50 in data set [1] was 8.00 to 9.00; in data set [2], < 5.30.
